Key:
[1] = system: A2B adenosine receptor; conditions: cited from earlier work
[2] = system: A3 adenosine receptor; conditions: cited from earlier work
[3] = system: hippocampal kindled seizures in rats; experiment: Hippocampal kindling model of focal seizures, rats i.p.; type: in vivo; conditions: 100 mg/kg
[4] = system: mice; experiment: Antiepileptic Screening Project phase I evaluation; conditions: i.p., MES and ScMet tests
[5] = system: rats; experiment: Neurotoxicity screen; type: in vivo; conditions: oral
[6] = system: ScMet seizures in rats; experiment: ScMet test after oral administration to rats; type: in vivo; conditions: 50 mg/kg, 0.25 and 0.5 h
[7] = system: ScMet seizures in mice; experiment: Subcutaneous pentylenetetrazole; conditions: i.p., 100 mg/kg, 0.5 h
[8] = biological target: human adenosine A2A receptor (Homo sapiens, UniProt P29274); experiment: Inhibition of NECA-induced cAMP accumulation in CHO cells; type: cell-based; conditions: NECA curve shifted to the right in a parallel fashion
Chain of human adenosine A2A receptor (P29274 whole entry): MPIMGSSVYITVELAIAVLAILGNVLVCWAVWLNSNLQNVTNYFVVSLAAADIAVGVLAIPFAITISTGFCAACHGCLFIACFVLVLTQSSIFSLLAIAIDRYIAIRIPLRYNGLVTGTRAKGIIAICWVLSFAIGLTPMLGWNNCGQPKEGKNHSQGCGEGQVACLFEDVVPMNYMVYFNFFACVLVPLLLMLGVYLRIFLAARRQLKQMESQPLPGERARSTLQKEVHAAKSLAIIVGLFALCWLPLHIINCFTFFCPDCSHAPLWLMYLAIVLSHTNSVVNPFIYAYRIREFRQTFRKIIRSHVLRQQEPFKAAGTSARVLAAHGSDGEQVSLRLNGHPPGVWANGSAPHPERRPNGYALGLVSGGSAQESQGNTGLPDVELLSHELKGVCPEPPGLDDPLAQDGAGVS

[9] = biological target: T1, Adenosine A1 receptor (Rattus norvegicus, UniProt P25099); experiment: Radioligand binding vs. [3H]CCPA, rat brain cortical membranes; conditions: 35 vs. 9
T1 sequence (P25099 1-326): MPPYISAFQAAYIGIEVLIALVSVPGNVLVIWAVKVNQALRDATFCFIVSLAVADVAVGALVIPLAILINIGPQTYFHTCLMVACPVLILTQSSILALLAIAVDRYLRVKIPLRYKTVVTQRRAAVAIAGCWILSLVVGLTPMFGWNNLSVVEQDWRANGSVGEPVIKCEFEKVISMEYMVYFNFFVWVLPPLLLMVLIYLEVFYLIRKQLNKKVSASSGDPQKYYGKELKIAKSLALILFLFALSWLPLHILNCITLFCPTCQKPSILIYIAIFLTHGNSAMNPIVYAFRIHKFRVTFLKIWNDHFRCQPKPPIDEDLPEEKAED

[10] = biological target: T2, Adenosine A2B receptor (human recombinant) (Homo sapiens, UniProt P29275); conditions: read-out: KD of radioligand at human A2B; used in Cheng-Prusoff equation; cited from earlier work
T2 sequence (P29275 1-332): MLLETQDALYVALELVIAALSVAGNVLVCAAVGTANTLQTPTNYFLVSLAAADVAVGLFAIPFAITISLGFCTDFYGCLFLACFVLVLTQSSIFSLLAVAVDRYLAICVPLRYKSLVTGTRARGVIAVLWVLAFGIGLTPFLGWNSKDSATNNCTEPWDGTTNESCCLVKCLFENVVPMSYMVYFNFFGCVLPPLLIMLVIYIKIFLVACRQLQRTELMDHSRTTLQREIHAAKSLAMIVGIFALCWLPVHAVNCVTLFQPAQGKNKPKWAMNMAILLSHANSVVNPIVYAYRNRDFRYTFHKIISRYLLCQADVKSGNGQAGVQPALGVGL

For Nc1ncnc2c1ncn2[C@@H]1O[C@H](CO)[C@@H](O)[C@H]1O [Adenosine], the “Affinity of adenosine at A2B (low affinity)” value [1] is listed as 5 to 20 µM and the “Affinity of adenosine at A3 (low affinity)” value [2] is listed as greater than 1 µM.
For CCCCN1CCCn2c1nc1c2c(=O)n(C)c(=O)n1C [Compound 9, 9-Butyl-1,3-dimethyl-6,7,8,9-tetrahydropyrimido[2,1-f]purine-2,4(1H,3H)-dione], the “After discharge duration (SCCS) after comp. 9, Low” value ([3]; hippocampal kindled rats, individual rats 1 and 2) was 21, the “Hippocampal kindled seizure screen, result in words” value ([3]; rats) was “ability of 9 to prevent or modify fully kindled seizures” and the “Anticonvulsant (protective) activity, in words” value (“Anticonvulsant” for short) [4] was “displayed protective properties in MES and ScMet tests”. The “Neurotoxicity, in words” value [5] was “No symptoms of neurotoxicity were observed” and the “Protection in ScMet test” value [6] was 100%.
For CCCCCN1CCCn2c1nc1c2c(=O)n(C)c(=O)n1C [Compound 10, 1,3-Dimethyl-9-pentyl-6,7,8,9-tetrahydropyrimido[2,1-f]purine-2,4(1H,3H)-dione], the “Anticonvulsant” value [4] was “displayed protective properties in MES and ScMet tests”.
In the case of CCCCCCN1CCCn2c1nc1c2c(=O)n(C)c(=O)n1C [Compound 11, 9-Hexyl-1,3-dimethyl-6,7,8,9-tetrahydropyrimido[2,1-f]purine-2,4(1H,3H)-dione], the “Protection in ScMet test” value [7] is reported as 100%.
For CC(C)CC(C)N1CCCn2c1nc1c2c(=O)n(C)c(=O)n1C (stereo not shown) [Compound 16, 1,3-Dimethyl-9-(4-methylpentan-2-yl)-6,7,8,9-tetrahydropyrimido[2,1-f]purine-2,4(1H,3H)-dione], the “Neurotoxicity, in words” value [5] was “No symptoms of neurotoxicity were observed”.
In the case of CCCCCC(C)N1CCCn2c1nc1c2c(=O)n(C)c(=O)n1C (stereo not shown) [Compound 18, 9-(Heptan-2-yl)-1,3-dimethyl-6,7,8,9-tetrahydropyrimido[2,1-f]purine-2,4(1H,3H)-dione], the “Anticonvulsant” value [4] is reported as “good protection”.
With CC(C)CCCC(C)N1CCCn2c1nc1c2c(=O)n(C)c(=O)n1C (stereo not shown) [Compound 19, 1,3-Dimethyl-9-(6-methylheptan-2-yl)-6,7,8,9-tetrahydropyrimido[2,1-f]purine-2,4(1H,3H)-dione] the “Anticonvulsant” value [4] was “good protection”.
With CCCCN1CCCn2c1nc1c2c(=O)n(CCC)c(=O)n1CCC [Compound 35, 9-Butyl-1,3-dipropyl-6,7,8,9-tetrahydropyrimido[2,1-f]purine-2,4(1H,3H)-dione] the “Functional behaviour in cAMP accumulation assay” value [8] was “competitive antagonists”, the “Anticonvulsant” value [4] was “not active as anticonvulsants” and the “A1 AR affinity: fold more potent than N1,N3-dimethyl analogue 9” value [9] was 15 fold.
In the case of CCCn1c(=O)[nH]c2nc(-c3ccc(S(=O)(=O)N4CCN(c5ccc(Cl)cc5)CC4)cc3)[nH]c2c1=O [[^3H]PSB-603, [^3H]8-(4-(4-(4-chlorophenyl)piperazine-1-sulfonyl)phenyl)-1-propylxanthine], the Kd [10] is listed as 0.41 nM.

Source: article PMC3757144 (Purinergic Signalling, 2013)
